# Results taken from patent US5663205A, “Pharmaceutical composition for use in glaucoma treatment” (Senju Pharmaceutical Co. Ltd., priority 1992, dated 1997).
# Test system: anterior ocular segment
# Assay: Test Example 7 (2)(c): ocular local toxicity, visual observation on the anterior ocular segment, 28 days instillation
# Assay type: in vivo, Japanese white rabbits
# Design: Cornea (opacity x area), numerical rating / Iris, numerical rating / Conjunctiva (A) redness of palpebral conjunctiva, numerical rating / Conjunctiva (B) edema of palpebral conjunctiva, numerical rating / Conjunctiva (C) redness of bulbar conjunctiva, numerical rating / Conjunctiva (D) nictitating membrane, numerical rating / Conjunctiva (E) discharge, numerical rating / Total numerical rating: scale not given here
# Method: (2) Ocular local toxicity test in rabbits of 1.0% and 0.5% ophthalmic solutions of amosulalol hydrochloride by consecutive instillation for 28 days:
# With 15 male Japanese white rabbits divided into 3 groups each consisting of 5 rabbits, 1.0% and 0.5% ophthalmic solutions of amosulalol hydrochloride as well as physiological saline as a control were applied in one drop (0.05 ml) per time to the right eye of each rabbit alone, four times a day at a regular interval of 2.5 hours, for 28 days consecutively with the left eye being left untreated.
# (c) Visual observation on the anterior ocular segment; Based on the below-described criteria for assessment of ocular injuries (Gendai no Rinsho (Present-Day Clinics) Vol. 4, No. 4, pp. 227-289, 1970), numerical rating was performed on 1.0% and 0.5% ophthalmic solutions of amosulalol hydrochloride before instillation as well as on the day (Day 1) of initiating the instillation and on the 2nd, 4th, 7th, 14th, 21st, 28th days after initiating the instillation but each time after completion of the instillation and on the morning of the last instillation (29th day). With reference to the results of numerical rating, a numerical rating of not less than 1 as determined on either of the items was understood to be judged "injurious to the eye" while numerical ratings of 0 and 0.5 were considered "not injurious to the eye".
# Criteria for assessment of ocular injuries:
# Tables 5 and 6 show the results of the visual observation on the anterior ocular section, being specified above under Item (c), as obtained with 1.0% and 0.5% ophthalmic solutions of amosulalol hydrochloride, respectively, wherein each value given represents a mean for 5 cases.
# In Tables 5 and 6, the numerical rating of cornea means the value obtained by multiplying a value in "(A) Degree of Opacity" by that of "(B) Area of opacity" in the above-described "Criteria for assessment of ocular injuries".
# [1] = 0.5% solution, before instillation, mean of 5
# [2] = 0.5% solution, day 1, mean of 5
# [3] = 0.5% solution, day 2, mean of 5
# [4] = 0.5% solution, day 4, mean of 5
# [5] = 0.5% solution, day 7, mean of 5
# [6] = 0.5% solution, day 14, mean of 5
# [7] = 0.5% solution, day 21, mean of 5
# [8] = 0.5% solution, day 28, mean of 5
# [9] = 0.5% solution, day 29, mean of 5
# [10] = 1.0% solution, before instillation, mean of 5
# [11] = 1.0% solution, day 1, mean of 5
# [12] = 1.0% solution, day 2, mean of 5
# [13] = 1.0% solution, day 4, mean of 5
# [14] = 1.0% solution, day 7, mean of 5
# [15] = 1.0% solution, day 14, mean of 5
# [16] = 1.0% solution, day 21, mean of 5
# [17] = 1.0% solution, day 28, mean of 5
# [18] = 1.0% solution, day 29, mean of 5
smiles,measurement,setting,value
"COc1ccccc1OCCNCC(O)c1ccc(C)c(S(N)(=O)=O)c1.Cl (centres unmarked) [amosulalol hydrochloride, 5-[1-hydroxy-2-[2-(2-methoxyphenoxy)ethylamino]ethyl]-2-methylbenzenesulfonamide hydrochloride]","Conjunctiva (A) redness of palpebral conjunctiva, numerical rating",[1],0
same,"Conjunctiva (B) edema of palpebral conjunctiva, numerical rating",[1],0
same,"Conjunctiva (C) redness of bulbar conjunctiva, numerical rating",[1],0
same,"Conjunctiva (D) nictitating membrane, numerical rating",[1],0
same,"Conjunctiva (E) discharge, numerical rating",[1],0
same,"Cornea (opacity x area), numerical rating",[1],0
same,"Iris, numerical rating",[1],0
same,Total numerical rating,[1],0
same,"Conjunctiva (A) redness of palpebral conjunctiva, numerical rating",[2],0
same,"Conjunctiva (B) edema of palpebral conjunctiva, numerical rating",[2],0
same,"Conjunctiva (C) redness of bulbar conjunctiva, numerical rating",[2],0.4
same,"Conjunctiva (D) nictitating membrane, numerical rating",[2],0
same,"Conjunctiva (E) discharge, numerical rating",[2],0
same,"Cornea (opacity x area), numerical rating",[2],0
same,"Iris, numerical rating",[2],0
same,Total numerical rating,[2],0.4
same,"Conjunctiva (A) redness of palpebral conjunctiva, numerical rating",[3],0
same,"Conjunctiva (B) edema of palpebral conjunctiva, numerical rating",[3],0
same,"Conjunctiva (C) redness of bulbar conjunctiva, numerical rating",[3],0.4
same,"Conjunctiva (D) nictitating membrane, numerical rating",[3],0
same,"Conjunctiva (E) discharge, numerical rating",[3],0
same,"Cornea (opacity x area), numerical rating",[3],0
same,"Iris, numerical rating",[3],0
same,Total numerical rating,[3],0.4
same,"Conjunctiva (A) redness of palpebral conjunctiva, numerical rating",[4],0
same,"Conjunctiva (B) edema of palpebral conjunctiva, numerical rating",[4],0
same,"Conjunctiva (C) redness of bulbar conjunctiva, numerical rating",[4],0.2
same,"Conjunctiva (D) nictitating membrane, numerical rating",[4],0
same,"Conjunctiva (E) discharge, numerical rating",[4],0
same,"Cornea (opacity x area), numerical rating",[4],0
same,"Iris, numerical rating",[4],0
same,Total numerical rating,[4],0.2
same,"Conjunctiva (A) redness of palpebral conjunctiva, numerical rating",[5],0
same,"Conjunctiva (B) edema of palpebral conjunctiva, numerical rating",[5],0
same,"Conjunctiva (C) redness of bulbar conjunctiva, numerical rating",[5],0.2
same,"Conjunctiva (D) nictitating membrane, numerical rating",[5],0
same,"Conjunctiva (E) discharge, numerical rating",[5],0
same,"Cornea (opacity x area), numerical rating",[5],0
same,"Iris, numerical rating",[5],0
same,Total numerical rating,[5],0.2
same,"Conjunctiva (A) redness of palpebral conjunctiva, numerical rating",[6],0
same,"Conjunctiva (B) edema of palpebral conjunctiva, numerical rating",[6],0
same,"Conjunctiva (C) redness of bulbar conjunctiva, numerical rating",[6],0.2
same,"Conjunctiva (D) nictitating membrane, numerical rating",[6],0
same,"Conjunctiva (E) discharge, numerical rating",[6],0
same,"Cornea (opacity x area), numerical rating",[6],0
same,"Iris, numerical rating",[6],0
same,Total numerical rating,[6],0.2
same,"Conjunctiva (A) redness of palpebral conjunctiva, numerical rating",[7],0
same,"Conjunctiva (B) edema of palpebral conjunctiva, numerical rating",[7],0
same,"Conjunctiva (C) redness of bulbar conjunctiva, numerical rating",[7],0.1
same,"Conjunctiva (D) nictitating membrane, numerical rating",[7],0
same,"Conjunctiva (E) discharge, numerical rating",[7],0
same,"Cornea (opacity x area), numerical rating",[7],0
same,"Iris, numerical rating",[7],0
same,Total numerical rating,[7],0.1
same,"Conjunctiva (A) redness of palpebral conjunctiva, numerical rating",[8],0
same,"Conjunctiva (B) edema of palpebral conjunctiva, numerical rating",[8],0
same,"Conjunctiva (C) redness of bulbar conjunctiva, numerical rating",[8],0.1
same,"Conjunctiva (D) nictitating membrane, numerical rating",[8],0
same,"Conjunctiva (E) discharge, numerical rating",[8],0
same,"Cornea (opacity x area), numerical rating",[8],0
same,"Iris, numerical rating",[8],0
same,Total numerical rating,[8],0.1
same,"Conjunctiva (A) redness of palpebral conjunctiva, numerical rating",[9],0
same,"Conjunctiva (B) edema of palpebral conjunctiva, numerical rating",[9],0
same,"Conjunctiva (C) redness of bulbar conjunctiva, numerical rating",[9],0
same,"Conjunctiva (D) nictitating membrane, numerical rating",[9],0
same,"Conjunctiva (E) discharge, numerical rating",[9],0
same,"Cornea (opacity x area), numerical rating",[9],0
same,"Iris, numerical rating",[9],0
same,Total numerical rating,[9],0
same,visual observation of the anterior ocular segment,"1.0% and 0.5% ophthalmic solutions, 4 times a day, 28 days",no abnormality
same,"Conjunctiva (A) redness of palpebral conjunctiva, numerical rating",[10],0
same,"Conjunctiva (B) edema of palpebral conjunctiva, numerical rating",[10],0
same,"Conjunctiva (C) redness of bulbar conjunctiva, numerical rating",[10],0
same,"Conjunctiva (D) nictitating membrane, numerical rating",[10],0
same,"Conjunctiva (E) discharge, numerical rating",[10],0
same,"Cornea (opacity x area), numerical rating",[10],0
same,"Iris, numerical rating",[10],0
same,Total numerical rating,[10],0
same,"Conjunctiva (A) redness of palpebral conjunctiva, numerical rating",[11],0.2
same,"Conjunctiva (B) edema of palpebral conjunctiva, numerical rating",[11],0
same,"Conjunctiva (C) redness of bulbar conjunctiva, numerical rating",[11],0.5
same,"Conjunctiva (D) nictitating membrane, numerical rating",[11],0
same,"Conjunctiva (E) discharge, numerical rating",[11],0
same,"Cornea (opacity x area), numerical rating",[11],0
same,"Iris, numerical rating",[11],0
same,Total numerical rating,[11],0.7
same,"Conjunctiva (A) redness of palpebral conjunctiva, numerical rating",[12],0.2
same,"Conjunctiva (B) edema of palpebral conjunctiva, numerical rating",[12],0
same,"Conjunctiva (C) redness of bulbar conjunctiva, numerical rating",[12],0.5
same,"Conjunctiva (D) nictitating membrane, numerical rating",[12],0
same,"Conjunctiva (E) discharge, numerical rating",[12],0
same,"Cornea (opacity x area), numerical rating",[12],0
same,"Iris, numerical rating",[12],0
same,Total numerical rating,[12],0.7
same,"Conjunctiva (A) redness of palpebral conjunctiva, numerical rating",[13],0.1
same,"Conjunctiva (B) edema of palpebral conjunctiva, numerical rating",[13],0
same,"Conjunctiva (C) redness of bulbar conjunctiva, numerical rating",[13],0.5
same,"Conjunctiva (D) nictitating membrane, numerical rating",[13],0
same,"Conjunctiva (E) discharge, numerical rating",[13],0
same,"Cornea (opacity x area), numerical rating",[13],0
same,"Iris, numerical rating",[13],0
same,Total numerical rating,[13],0.6
same,"Conjunctiva (A) redness of palpebral conjunctiva, numerical rating",[14],0.1
same,"Conjunctiva (B) edema of palpebral conjunctiva, numerical rating",[14],0
same,"Conjunctiva (C) redness of bulbar conjunctiva, numerical rating",[14],0.3
same,"Conjunctiva (D) nictitating membrane, numerical rating",[14],0
same,"Conjunctiva (E) discharge, numerical rating",[14],0
same,"Cornea (opacity x area), numerical rating",[14],0
same,"Iris, numerical rating",[14],0
same,Total numerical rating,[14],0.4
same,"Conjunctiva (A) redness of palpebral conjunctiva, numerical rating",[15],0.1
same,"Conjunctiva (B) edema of palpebral conjunctiva, numerical rating",[15],0
same,"Conjunctiva (C) redness of bulbar conjunctiva, numerical rating",[15],0.3
same,"Conjunctiva (D) nictitating membrane, numerical rating",[15],0
same,"Conjunctiva (E) discharge, numerical rating",[15],0
same,"Cornea (opacity x area), numerical rating",[15],0
same,"Iris, numerical rating",[15],0
same,Total numerical rating,[15],0.4
same,"Conjunctiva (A) redness of palpebral conjunctiva, numerical rating",[16],0.1
same,"Conjunctiva (B) edema of palpebral conjunctiva, numerical rating",[16],0
same,"Conjunctiva (C) redness of bulbar conjunctiva, numerical rating",[16],0.3
same,"Conjunctiva (D) nictitating membrane, numerical rating",[16],0
same,"Conjunctiva (E) discharge, numerical rating",[16],0
same,"Cornea (opacity x area), numerical rating",[16],0
same,"Iris, numerical rating",[16],0
same,Total numerical rating,[16],0.4
same,"Conjunctiva (A) redness of palpebral conjunctiva, numerical rating",[17],0.1
same,"Conjunctiva (B) edema of palpebral conjunctiva, numerical rating",[17],0
same,"Conjunctiva (C) redness of bulbar conjunctiva, numerical rating",[17],0.3
same,"Conjunctiva (D) nictitating membrane, numerical rating",[17],0
same,"Conjunctiva (E) discharge, numerical rating",[17],0
same,"Cornea (opacity x area), numerical rating",[17],0
same,"Iris, numerical rating",[17],0
same,Total numerical rating,[17],0.4
same,"Conjunctiva (A) redness of palpebral conjunctiva, numerical rating",[18],0
same,"Conjunctiva (B) edema of palpebral conjunctiva, numerical rating",[18],0
same,"Conjunctiva (C) redness of bulbar conjunctiva, numerical rating",[18],0
same,"Conjunctiva (D) nictitating membrane, numerical rating",[18],0
same,"Conjunctiva (E) discharge, numerical rating",[18],0
same,"Cornea (opacity x area), numerical rating",[18],0
same,"Iris, numerical rating",[18],0
same,Total numerical rating,[18],0
same,side effects such as ocular irritation,ophthalmic solution,free from side effects such as ocular irritation
